Data set [1] can be described thus: Phase I clinical trial of oral Vorinostat plus Bortezomib: MTD, safety and tolerability. It counts as in vivo, human. The note with it: Vorinostat 500 mg daily with Bortezomib […]^2, cycle 1, 2 patients. The method, then: This was a multicenter, open label, escalating dose, Phase I study of Vorinostat in combination with intravenous Bortezomib injection in patients eligible for Bortezomib therapy. […] Patients on Dose Levels 1-5 were administered Bortezomib as an intravenous (IV) bolus on Days 1, 4, 8 and 11.
At the beginning of the study, five 3-patient cohorts were evaluated at various dose levels as outlined in the Table 1 and Table 2 below.
In the absence of treatment delays due to adverse events, treatment continued for 8-cycles or until one of the following criteria applied: • a) disease progression • b) intercurrent illness that prevents further administration of treatment • c) unacceptable adverse events • d) patient decides to withdraw from the study • e) general or specific changes in the patient's condition render the patient unacceptable for further treatment in the judgment of the investigator. • f) if the patient achieves a complete remission, they continue on the study for a total of 8 cycles.
Further studies enrolled up to 40 adult patients with multiple myeloma, relapsed or refractory disease. One treatment cycle was 3 weeks or 21 days. […] Although the current FDA approved Bortezomib dose for relapsed myeloma patients to be […], if toxicity occurred, the subsequent dose of Bortezomib was going to be decreased to 0.7 mg/m^2. […] Other Bortezomib dose to be tested was 1.3 mg/m^2.

Data set [2] is described as follows: Pharmacokinetics of Vorinostat in the Phase I trial.
Data set [3] has as its system relapsed and refractory multiple myeloma. As to the kind of experiment: Phase I clinical trial of oral Vorinostat plus Bortezomib: response. In kind it is in vivo, human. The note with it: dexamethasone 20 mg p.o. days 4-8 added to Vorinostat and Bortezomib for nonresponders.

On to `O=C(CCCCCCC(=O)Nc1ccccc1)NO` [Vorinostat, N-Hydroxy-N′-phenyl octanediamide], for which the “toxicities defining the MTD in cycle 1” value in data set [1] was “grade 4 prolonged QT interval and grade 4 fatigue”. Besides, the “effect of administration after Bortezomib on pharmacokinetics” value in data set [2] (Vorinostat given after Bortezomib) is recorded as “did not affect pharmacokinetics”. Also, the “dose dependence of pharmacokinetics” value in data set [2] (single oral dose, 100-500 mg) is “linear”.
As for “9-fluoro-1′-beta,17,21-trihydroxy-16-alpha-methylpregna-1,4-diene-3,20-dione [dexamethasone]”, the “effect of added dexamethasone on response” value in data set [3] was “no upgrade in response”.
